Test results from patent US6043285A, “Use of p-aminophenol derivatives for the preparation of pharmaceutical compositions useful in the treatment of neurodegenerative diseases” (Angelini Ricerche S.p.A. Societa'Consortile, priority 1996, dated 2000).
Like-named read-outs stand apart in the source and are kept apart here.

Legend:
T98G cell line = assay: Toxicity in the T98G cellular system; format: cell-based, human; settings: concentration above 10 μM not possible
[1] = tested on: E2 prostaglandins production in T98G cell line; assay: Prostaglandin E2 production in the T98G cell line stimulated with IL-1β; format: cell-based, human; settings: IL-1β stimulated
Procedure: (§1) The cells (2×10^6 /ml) were incubated for 48 hours in the presence of increasing concentrations of paracetamol (10-100-500-1000 μM) or indomethacin (0, 1-1-10 μM) both in the presence and in the absence of IL-1β (50 U/ml). On completion of incubation, the culture medium was harvested and the quantity of C3 secreted by the cells in the various conditions was measured. C3 was assayed in a sandwich-type immunoenzymatic test, in which two anti-C3 antibodies of different species were used as well as an antiserum labeled with an alkaline phosphatase specific for one of the two anti-C3 antibodies. The secreted C3 was quantified using a standard curve prepared on the basis of purified C3.
(§2) Parallel experiments were conducted in which the ability of paracetamol and indomethacin to inhibit the production of prostaglandins produced by the glioblastoma T98G cell line or by the J774.2 cellular macrophagic cell line was assessed.
The test with T98G cells stimulated with IL-1β was conducted as described in the previous Example 1. At the end of incubation the culture medium was harvested and the quantity of E2 prostaglandins present was measured. The prostaglandins were assayed by means of a commercially available immunoenzymatic test ([…]).

[2] = tested on: interleukin-6 (IL-6) production in T98G cell line; assay: IL-6 production in the T98G cell line stimulated with β-amyloid; format: cell-based, human
Procedure: The effect of paracetamol on the production of IL-6 was studied using the human cell line glioblastoma T98G. The said line is in fact capable of constitutively producing IL-6 and this synthesis is augmented in the presence of aggregated β-amyloid. Indomethacin was used as the reference drug.
The cells (2×10^6 /ml) were incubated for 48 hours in the presence of increasing concentrations of paracetamol (10-1000 μM) or indomethacin (0.1-10 μM) in the presence of β-amyloid (50 μM) aggregated by incubation at 37° C. for 6 days. At the end of the experiment the culture medium was harvested and the quantity of IL-6 produced in the various conditions was assayed using a commercial immunoenzymatic kit (Biotrak IL-6, Amersham, UK).

[3] = tested on: factor 3 of the complement (C3) production in T98G cell line; assay: Complement factor C3 secretion in the T98G cell line; format: cell-based, human; settings: for reducing secretion of factors of the complement (in words): T98G cells
Procedure: The effect of paracetamol on the production of complement factors has been studied using the human glioblastoma T98G cell line. The said line is in fact capable of constitutively producing factor 3 of the complement (C3) and this synthesis is further increased in the presence of various stimuli such as interleukin-1 beta (IL-1β). Indomethacin has been used as the reference drug.
as §1

[4] = tested on: patients suffering from Alzheimer's disease; settings: 44 patients, 6 months, in comparison with placebo; cited from earlier work
[5] = tested on: prostaglandin E2 production in J774.2 macrophagic cells; assay: Prostaglandin E2 production in the J774.2 macrophagic cell line stimulated with LPS; format: cell-based
Procedure: as §2
Parallel to the above experiment, J774.2 (2×10^6 /ml) macrophagic cells were stimulated with lipopolysaccharide (LPS) (1 μg/ml) for 12 hours. After 3 washes with physiological solution, the cells were incubated for 45 minutes together with increasing concentrations of paracetamol (0.1-100 μM) or indomethacin (0.01-1 μM). At the end of incubation the supernatants were harvested and the prostaglandin E2 content was measured using the previously described test.

[6] = cited from earlier work
[7] = low therapeutic doses from 0.5 to 1 g, 3 or 4 times a day; cited from earlier work
[8] = tested on: onset of the Alzheimer disease; settings: retrospective, subjects treated for pain and fever; cited from earlier work
peripheral cycloxygenase = settings: cited from earlier work
[9] = tested on: T98G and J774.2 cell lines; assay: Selectivity of action on the nervous system (Tables 1 to 4 as a whole); format: cell-based; settings: contrary to indomethacin
Procedure: as §2

[10] = Homo sapiens, T98G, 48 h, read-out: Inhibition % of production of IL-6
[11] = Homo sapiens, T98G, 48 h, read-out: Inhibition % of production of complement (C3)
[12] = Mus musculus, J774.2, 0.75 h, read-out: Inhibition % of production of prostaglandins
[13] = Homo sapiens, T98G, 48 h, IL-1β stimulated (50 U/ml)
[14] = Homo sapiens, T98G, 48 h, not stimulated with IL-1β

With `COc1ccc2c(c1)c(CC(=O)O)c(C)n2C(=O)c1ccc(Cl)cc1` [Indomethacin] the “toxicity in the cellular system used” value (T98G cell line) was “because of its toxicity in the cellular system used, it was not possible to increase its concentration above 10 μM”, the inhibition at 0.1 µM ([1]; Homo sapiens, 0.1 μM) was 99.3% and the inhibition at 1 µM ([1]; Homo sapiens, 1 μM) was 98.4%. For the same compound, the inhibition at 10 µM ([1]; Homo sapiens) was 99.1%, the “inhibiting production of prostaglandins in glial cells (in words)” value [1] was “capable of inhibiting production of prostaglandins in the glial cells of the central nervous system in a significant manner” and the inhibition at 0.1 µM [2, 10] was 21.1%. It also gave an inhibition at 1 µM [2, 10] of 17.6%, an inhibition at 10 µM [2, 10] of 11.5% and an inhibition at 0.1 µM [3, 11] of 26.9%. For the same compound, the inhibition at 1 µM [3, 11] was 21.7%, the inhibition at 10 µM [3, 11] was 35.1% and the inhibition at 10 µM ([3]; Homo sapiens, T98G, read-out: inhibiting activity on secretion of the complement) was 35%. The “reducing secretion of factors of the complement (in words)” value (shortened to “reducing secretion”) [3] was “active in reducing the secretion of the complement”, the “reducing secretion” value ([3]; listed as indomethacin) was “capable of reducing secretion of factors of the complement” and the progression of dementia [4] was “notable slowing of the progression of dementia”. It also gave an inhibition at 0.01 µM [5, 12] of 35.8%, an inhibition at 0.1 µM [5, 12] of 61.1% and an inhibition at 1 µM [5, 12] of 87.4%.
For `CC(=O)Nc1ccc(O)cc1` [Paracetamol, N-acetyl-p-aminophenol], the plasma concentration ([6]; after 6 hours, oral administration of 1 g) is given as “approximately 1.5 mg/l”, the tissue distribution ([6]; in words, including the brain) is given as “distributed evenly throughout the major part of the tissues of the organism, including the brain” and the absorption ([6]; in words) is given as “rapidly absorbed”. The “tissue concentration relative to plasma” value ([6]; oral administration) was “substantially the same as the plasma concentration”, the plasma concentration ([6]; within a few minutes of oral administration of 1 g) was “approximately 10 mg/l” and the concentration ([6]; within a few minutes of oral administration of 1 g, read-out: plasma concentration) was ~66.2 µM. The side effects [7] was “no significant side effects”, the tolerability [7] was “well tolerated” and the “delay in the onset of the Alzheimer disease” value [8] was “negative”. For the same compound, the inhibition at 10 µM ([1]; Homo sapiens) was 26.7%, the inhibition at 100 µM ([1]; Homo sapiens, 100 μM) was 88.5% and the inhibition at 500 µM ([1]; Homo sapiens, 500 μM) was 96.9%. For the same compound, the inhibition at 1000 µM ([1]; Homo sapiens, 1000 μM) was 99%, the “inhibiting production of prostaglandins in glial cells (in words)” value [1] was “capable of inhibiting production of prostaglandins in the glial cells of the central nervous system in a significant manner” and the inhibition at 10 µM ([2]; Homo sapiens, T98G, β-amyloid stimulated (50 μM), 48 hours, 10 μM, read-out: Inhibition % of production of IL-6) was 11.4%. It also gave an inhibition at 100 µM ([2]; Homo sapiens, T98G, β-amyloid stimulated (50 μM), 48 hours, 100 μM) of 6.7%, an inhibition at 500 µM ([2]; Homo sapiens, T98G, β-amyloid stimulated (50 μM), 48 hours, 500 μM) of 20.5% and an inhibition at 1000 µM ([2]; Homo sapiens, T98G, β-amyloid stimulated (50 μM), 48 hours, 1000 μM) of 41.2%. For the same compound, the IC50 ([2]; Homo sapiens, T98G, β-amyloid stimulated, read-out: Cl50 for production of IL-6) was > 1 mM, the “reducing the secretion of IL-6 (in words)” value ([2]; in the presence of β-amyloid) was “capable of reducing the secretion of IL-6” and the “action on peripheral cycloxygenase” value (peripheral cycloxygenase) was “absence of action on peripheral cycloxygenase”. The inhibition at 100 µM ([3]; Homo sapiens, T98G, 48 h, IL-1β stimulated (50 U/ml), 100 μM) was 23.6%, the inhibition at 500 µM [3, 13] was 39.8% and the inhibition at 1000 µM [3, 13] was 47.5%. It also gave an inhibition at 10 µM ([3]; Homo sapiens, T98G, 48 h, IL-1β stimulated (50 U/ml), 48 hours, 10 μM, read-out: Inhibition % of production of complement (C3)) of 0.1%, an inhibition at 500 µM [3, 14] of 37.4% and an inhibition at 1000 µM [3, 14] of 60.8%. For the same compound, the IC50 ([3]; Homo sapiens, T98G, cells stimulated with interleukin-1 beta, read-out: Cl50 for secretion of C3) was ~1 mM, the “reducing secretion” value [3] was “capable of reducing secretion of factors of the complement” and the “selectivity of action on the nervous system” value [9] was “peculiar selectivity of action on the nervous system”. The “inhibiting activity on production of prostaglandins in macrophages (in words)” value ([5]; J774.2, LPS stimulated) was “little inhibiting activity on production of prostaglandins in macrophages”, the inhibition at 0.1 µM ([5]; Mus musculus, 0.75 h, J774.2, LPS stimulated (1 μg/ml), 45 minutes, 0.1 μM, read-out: Inhibition % of production of prostaglandins) was 5.3% and the inhibition at 1 µM ([5]; Mus musculus, 0.75 h, J774.2, LPS stimulated (1 μg/ml), 45 minutes, 1 μM, read-out: Inhibition % of production of prostaglandins) was 6.4%. The inhibition at 10 µM ([5]; Mus musculus, 0.75 h, J774.2, LPS stimulated (1 μg/ml), 45 minutes, 10 μM, read-out: Inhibition % of production of prostaglandins) was 12.5% and the inhibition at 100 µM ([5]; Mus musculus, 0.75 h, J774.2, LPS stimulated (1 μg/ml), 45 minutes, 100 μM, read-out: Inhibition % of production of prostaglandins) was 11.4%.
